Assays:
Bacillus subtilis = assay: Antibacterial activity against Bacillus subtilis at 5 umol/L; type: functional
[1] = Toxicity in rat; type: organism-based; settings: in vivo

CCCCC[C@@H](O)CCO
Activity (Bacillus subtilis): 50% | LD50 [1]: 20000 mg/kg

— ChEMBL document CHEMBL1157982, “Isolation, identification, and enantioselective synthesis of octane-1,3,7-triol: determination of its absolute configuration” (J Nat Prod, 1999)
